Several values for one entry are separate records, joined by “and”; a condition that tells them apart may be missing. Identical values can stand only once.

Results on two compounds are retold here after patent US6699384B1, “Compact electrochemical sensor system and method for field testing for metals in saliva or other fluids” (priority 1999, dated 2004).

The nature of data set [1]: Pb in whole blood and saliva of rats after single acute oral doses of Pb-acetate. The class given is in vivo, Fisher 344 rats. From the text: Different sample pretreatment procedures for the effective release of the Pb from its binding sites in the biological fluids have been previously reviewed. (Wang, J.: Stripping analysis of trace metals in human body fluids. J. Electroanal. Chem., 139: 225-232 (1982)). It was reported that 0.5 M HCl can effectively release Pb^2+ ion from blood samples. (Nagler, R. M., Baum, B. J., and Fox, P. C.: Effect of X irradiation on the function of rat salivary glands at 3 and 40 days. Rad. Res., 136: 392-396 (1993)). In our work saliva sample was diluted 5 times with acidic solution to a final concentration of 0.5 M HCl. The sample solution was then loaded in sample reservoir and was delivered by the integrated micro-pump. The sample solution flowed across a mercury (Hg)-film working electrode and exited through an outflow groove positioned directly across the Pt auxiliary electrode. Square wave anodic stripping voltametry (SWASV) was utilized for quantitation of Pb in the specimens. For Pb detection, a constant potential of −1.10 V was applied to the glassy carbon Hg-film electrode. When sample solution flowed over the electrode surface, Pb^2+ was reduced and accumulated. After a 3-min accumulation period, the potential of the Hg-film electrode was scanned from −1.10 V to −0.10 V. To eliminate the sample matrix effect for blood and saliva samples, after the accumulation period, a clean solution (0.5 M HCl) was pumped from another reservoir and replaced the sample matrix, then the stripping analysis was performed. After each measurement the Pb was stripped from the electrode surface and the sensor was then available for analysis of the next specimen.
In order to validate the capability of the micro-analytical detection system to quantify Pb in biological specimens, rat studies were conducted using single acute oral doses of Pb-acetate. Adult male Fisher 344 rats were obtained from Charles River Laboratory and ranged from ˜0.230 to 0.260 kg of body weight when used. Groups of rats (3-5 animals/dose) were administered an aqueous solution of Pb-acetate by oral gavage at doses of 0, 20, 50, 100, 200 and 500 mg/kg of body weight. At ˜24 hr post-dosing the rats were anesthetized with an ip injection of ketamine (87 mg/kg):xylazine (13 mg/kg). In addition, each rat was given an ip injection of the cholinergic agonist pilocarpine (1 mg/kg) to induce salivation. Saliva was then collected from each rat, using a glass capillary tube, for approximately 30-min (˜1-2 mL saliva) at which time the rats were exsanguinated by cardiac puncture. Whole blood and saliva specimens were weighed and stored frozen (−80° C.) until the Pb analysis was conducted.
The concentration of Pb in the specimens was determined by inductively coupled plasma/mass spectrometry (ICP-MS). […]

Data set [2] is described as follows: Rate of salivation during pilocarpine treatment. Conditions: rat, pilocarpine 1 mg/kg ip. Type of data set: in vivo, Fisher 344 rats. The protocol:
In order to validate the capability of the micro-analytical detection system to quantify Pb in biological specimens, rat studies were conducted using single acute oral doses of Pb-acetate. Adult male Fisher 344 rats were obtained from Charles River Laboratory and ranged from ˜0.230 to 0.260 kg of body weight when used. Groups of rats (3-5 animals/dose) were administered an aqueous solution of Pb-acetate by oral gavage at doses of 0, 20, 50, 100, 200 and 500 mg/kg of body weight. At ˜24 hr post-dosing the rats were anesthetized with an ip injection of ketamine (87 mg/kg):xylazine (13 mg/kg). […]
A PBPK model describing the disposition of Pb in the rat was modified to accommodate a saliva compartment. In general, the PBPK model structure and parameter estimations were as previously described, and the reader is referred to O'Flagherty for a detailed description of the model. […] For simplification the model assumes a constant rate of saliva secretion based on the measured rate of salivation during pilocarpine treatment (0.048 L/day), recognizing that this represents an over estimation of normal saliva flow. […] The fraction of cardiac output to the saliva gland and 1st order absorption rate for intraperitoneal (ip) Pb administration were determined by fitting the data of Mobarak and P'an. […]

`CC(=O)[O-].CC(=O)[O-].[Pb+2]` [Pb, Pb-acetate]: the “blood Pb concentration” value in data set [1] (500 mg/kg oral dose group, 24 hr post-dosing, saliva response non-linear relative to blood) is “exceeding 0.7 mg/L”. For the same compound, in data set [1] (rat saliva ~24 hr after oral gavage of Pb-acetate, ICP-MS after acid digestion, individual samples 1-3), the “Pb in rat saliva, Results of ICP/MS” value is 99 ppb and 150 ppb and 116 ppb. For the same compound, in data set [1] (rat saliva ~24 hr after oral gavage of Pb-acetate, SWASV on Hg-film electrode, individual samples 1-3), the “Pb in rat saliva, Results of micro Analytical System” value was 80 ppb and 108 ppb and 111 ppb. Further, the “saliva Pb as percentage of the concentration in the blood” value in data set [1] (rat, oral Pb-acetate, ~24 hr post-dosing) is reported as 8.5%-9.
Take `CC[C@@H]1C(=O)OC[C@@H]1Cc1cncn1C` [pilocarpine]: in data set [2], the “rate of saliva secretion” value worked out at 0.048 L/day.
